Experimental findings from patent US20070238649A1, “Agents for Regulating Adiponectin Receptor Expression” (priority 2004, published 2007) are described below.

The nature of assay [1]: Plasma insulin and plasma glucose in STZ-treated mice without or with insulin. The class given is in vivo. An excerpt: Animals Fifteen-week-old ob/ob mice and their wild-type C57BL/6 mice were obtained from CharlesRiver Breeding Laboratories (Wilmington, Mass.). Male mice were housed in colony cages, maintained on a 12-h light/12-h dark cycle. Our high-fat diet contains oil 1152 g (from Benibana, Japan; safflower oil [high-oleic type] contained 46% oleic acid (18:1n-9) and 45% linoleic acid (18:2n-6) from total fatty acids), casein 1191.6 g (Oriental Yeast, Tokyo, Japan, No.19), sucrose 633.6 g (Oriental Yeast, No. 13), vitamin mix 50.4 g (Oriental Yeast, No. 20 (AIN76), mineral mix 352.8 g (Oriental Yeast, No.25 (AIN76), cellulose powder 201.6 g (Oriental Yeast, No.19), DL-methionine 18 g (Wako Pure Chemicals, Osaka, Japan), water 360 ml; total 3600 g (20). Plasma insulin was measured by an insulin immunoassay (Shibayagi, Gunma, Japan). The animal care and procedures were approved by the Animal Care Committee of the University of Tokyo.
(§1) STZ Treatments Diabetes was induced by a double intraperitoneal injection of 0.2-0.3 ml of 50 mM sodium citrate solution (pH 4.5) containing STZ (200 mg/kg body weight). Control (non-STZ) mice were injected with 50 mM sodium citrate solution (pH 4.5). Three days after injection, plasma glucose levels were checked and diabetes was confirmed (glucose level >250 mg/dl). A combination of human regular insulin (1 units/kg; Eli Lilly, Indianapolis, Ind.), each given in 0.2 ml of saline was administered to the STZ+ insulin group. The mice in the STZ+ vehicle and non-STZ groups received 0.2 ml of saline injected both intraperitoneally. After injection of INS or saline, the animals were fasted for 6 h and then hindlim's skeletal muscles were removed.

The next assay relates to AdipoR1 mRNA. Nature of the assay: AdipoR1 mRNA in skeletal muscle of STZ-treated mice (real-time PCR). The assay is classed as in vivo. As to conditions: FIG. 2C. As to the method:
as §1
(§2) Quantitative analysis of AdipoR1 and R2 transcripts by Northern blot and Real-time PCR Total RNA was prepared from cells or tissues with TRIzol (GIBCO/BRL) according to the manufacturer's instructions. For quantification of AdipoRs mRNAs, we employed the real-time PCR method (14). The primer sets and the probes for mAdipoR1,2 were as follows; the forward primer for mAdipoR1 was […], the reverse primer, […] and the probe, […]; the forward primer for mAdipoR2 was […], the reverse primer, […] and the probe, […]. The relative amount of each AdipoR transcript was normalized to the amount of actin transcript in the same cDNA (14).

The test system of another assay is AdipoR2 mRNA. The experiment in a line: AdipoR2 mRNA in skeletal muscle of STZ-treated mice (real-time PCR). The class given is in vivo. As to conditions: FIG. 2D. As to the method:
as §1, §2

The subject of assay [2] is membrane fractions of skeletal muscle. Nature of the assay: [125I]adiponectin binding assay on membrane fractions of skeletal muscle. As to conditions: wild-type vs ob/ob mice; FIGS. 5A, 5B. As to the method: Binding Assay Synthetic adiponectin was ^125I-labeled at Tyr by IODO-beads (Pierce) in the presence of Na^125I (2,000 Ci/mmol, Amersham Pharmacia Biotech) according to the manufacturer's protocol. Membrane fractions of muscles were incubated at 4° C. for 1 hr with binding buffer (ice-cold phosphate-buffered saline/0.1% bovine serum albumin) containing designated concentrations of [^125I]adiponectin (5,000 cpm/ng protein) plus unlabeled competitors. […] The cells were then washed three times with ice-cold phosphate-buffered saline, lysed in 0.1 N NaOH/0.1% SDS, and the cell-bound radioactivity was determined using a γ-counter (14). Nonspecific binding was determined using a 200-fold excess of unlabeled adiponectin. Specific binding was calculated by subtracting nonspecific binding from the total binding. The values presented in the “Results” represent an average of triplicate determinations of 3-10 experiments.

The test system of the next assay is AMPK. Nature of the assay: Adiponectin tolerance test: AMPK phosphorylation in skeletal muscle (Western blot). As to conditions: 50 μg/10 g body weight, 5 min, FIGS. 5C, 5D. The class given is in vivo, mice. As to the method: Generation of recombinant adiponectin, adiponectin tolerance test and Western blot analysis Bacterially expressed murine full-length adiponectin (Ad) was generated as previously described (10, 14). […] Skeletal muscles were isolated 5 min after adiponectin injection. Phosphorylation and amount of AMPK in keletal muscles were determined (10, 14).
(A western blot detects proteins with antibodies after separation by electrophoresis.)

Where [3] appears, read: skeletal muscle of STZ-treated mice.
[4] abbreviates: skeletal muscle, STZ-treated mice given insulin.

With `CN(N=O)C(=O)N[C@H]1C(O)O[C@H](CO)[C@@H](O)[C@@H]1O` (mixture of isomers) [STZ, streptozotocin], the plasma insulin result in assay [1] (STZ 200 mg/kg intraperitoneal, mice fasted 6 h, FIG. 2A) is “abolished”. Also, the plasma glucose entry in assay [1] (STZ-treated vs control mice, fasted 6 h, FIG. 2B lanes 1, 2) is reported as “significant marked increase”. Further, the “increase in AdipoR1 mRNA” value in the assay with AdipoR1 mRNA (setting [3]) is 103%. Also, the “increase in AdipoR2 mRNA” value in the assay on AdipoR2 mRNA (setting [3]) is 38%.

With “insulin: human regular insulin (Eli Lilly) in vivo; insulin added to hepatocytes and C2C12 myocytes in vitro”, the plasma glucose levels entry in assay [1] (STZ plus insulin (1 units/kg) compared with STZ alone, FIG. 2B lanes 2, 3) was “reduced”. In the assay with AdipoR1 mRNA (setting [4]), the “AdipoR1 mRNA after insulin treatment” value is on record as “restored nearly completely”. For the same molecule, in the assay on AdipoR2 mRNA (setting [4]), the “AdipoR2 mRNA after insulin treatment” value is “restored nearly completely”.

B1: adiponectin: bacterially expressed murine full-length adiponectin; 125I-labeled adiponectin (globular or full-length) in the binding assay (protein)
chain: EDDVTTTEELAPALVPPPKGTCAGWMAGIPGHPGHNGTPGRDGRDGTPGEKGEKGDAGLLGPKGETGDVGMTGAEGPRGFPGTPGRKGEPGEAAYVYRSAFSVGLETRVTVPNVPIRFTKIFYNQQNHYDGSTGKFYCNIPGLYYFSYHITVYMKDVKVSLFKKDKAVLFTYDQYQEKNVDQASGSVLLHLEVGDQVWLQVYGDGDHNGLYADNVNDSTFTGFLLYHDTN
On to B1, for which the “adiponectin binding to the membrane fractions of skeletal muscle” value in assay [2] is “higher binding to the membrane fractions of skeletal muscle of wild-type mice than ob/ob mice”. The “AMPK activation in skeletal muscle” value with AMPK (ob/ob mice (implied)) is “unable to activate AMPK”; in the assay with AMPK (wild-type mice), “able to activate AMPK”.
